Legend:
[1] = molecular target: Recombinant human Cbl-b (aa 36-427) (Homo sapiens, UniProt Q13191); experiment: Cbl-b Biochemical Assay (TR-FRET); settings: read-out: TR-FRET hCbl-b IC50
[2] = molecular target: T1, Recombinant human c-Cbl (aa 47-435) (Homo sapiens, UniProt P22681); experiment: c-Cbl Biochemical Assay (TR-FRET); settings: hc-Cbl Biochemical Assay (TR-FRET); read-out: TR-FRET hcCbl IC50
T1 sequence (P22681 47-435): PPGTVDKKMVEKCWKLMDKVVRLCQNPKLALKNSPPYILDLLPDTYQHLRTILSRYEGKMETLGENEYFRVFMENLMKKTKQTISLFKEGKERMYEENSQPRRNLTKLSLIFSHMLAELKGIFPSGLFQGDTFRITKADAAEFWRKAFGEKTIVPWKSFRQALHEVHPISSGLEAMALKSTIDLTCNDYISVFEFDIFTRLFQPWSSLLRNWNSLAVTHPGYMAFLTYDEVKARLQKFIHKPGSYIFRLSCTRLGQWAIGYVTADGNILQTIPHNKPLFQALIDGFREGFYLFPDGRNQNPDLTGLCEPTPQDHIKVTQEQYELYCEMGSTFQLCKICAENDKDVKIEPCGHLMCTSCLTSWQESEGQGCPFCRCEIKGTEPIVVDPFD

[3] = test system: Jurkat (clone E6-1) cells with NFAT luciferase reporter; experiment: Jurkat reporter assay (NFAT Luciferase); type: cell-based; settings: Homo sapiens; Jurkat NFAT luciferase reporter cells, anti-CD3 stimulation, 6 hr; read-out: Jurkat NFAT EC50

Chain of Recombinant human Cbl-b (aa 36-427) (Q13191 36-427): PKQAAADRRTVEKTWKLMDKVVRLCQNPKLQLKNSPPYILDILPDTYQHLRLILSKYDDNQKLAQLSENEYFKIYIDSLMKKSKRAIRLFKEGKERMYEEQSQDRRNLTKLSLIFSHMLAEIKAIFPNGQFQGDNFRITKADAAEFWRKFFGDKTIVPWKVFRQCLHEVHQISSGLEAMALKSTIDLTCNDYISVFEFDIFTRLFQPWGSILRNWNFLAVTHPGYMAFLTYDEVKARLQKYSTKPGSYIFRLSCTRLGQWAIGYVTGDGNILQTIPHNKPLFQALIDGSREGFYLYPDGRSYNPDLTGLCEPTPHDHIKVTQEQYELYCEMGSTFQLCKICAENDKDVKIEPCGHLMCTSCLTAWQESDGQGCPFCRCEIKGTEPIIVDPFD

Row | Structure (SMILES) | IC50 [1] [nM] | IC50 [2] [nM] | EC50 [3] [nM]
1 | COc1cc(CNCC2CC2)cc2nc(-c3cccc(-c4ccc(F)cc4-c4nncn4C)c3)oc12 [FU-1, 1-Cyclopropyl-N-((2-(4′-fluoro-2′-(4-methyl-4H-1,2,4-triazol-3-yl)-[1,1′-biphenyl]-3-yl)-7-methoxybenzo[d]oxazol-5-yl)methyl)methanamine] | < 200 | < 200 | 200 to 1000
2 | Cn1cnnc1-c1cc(F)ccc1-c1cccc(-c2nc3cc(CN[C@@H]4CCC[C@@H]4O)cc(C4CC4)c3o2)c1 [ES-6, (1S,2R)-2-(((7-Cyclopropyl-2-(4′-fluoro-2′-(4-methyl-4H-1,2,4-triazol-3-yl)-[1,1′-biphenyl]-3-yl)benzo[d]oxazol-5-yl)methyl)amino)cyclopentan-1-ol] | < 200 | < 200 | < 200
3 | Cn1cnnc1-c1cc(F)ccc1-c1cccc(-c2nc3cc(CNC4CCC4)c(F)c(F)c3o2)c1 [JF-1, N-((6,7-Difluoro-2-(4′-fluoro-2′-(4-methyl-4H-1,2,4-triazol-3-yl)-[1,1′-biphenyl]-3-yl)benzo[d]oxazol-5-yl)methyl)cyclobutanamine] | < 200 | 200 to 1000 | < 200
4 | Cn1cnnc1-c1cc(F)ccc1-c1cccc(-c2nc3cc(CN[C@H]4CCC[C@H]4O)cc(C(F)(F)F)c3o2)c1 [HI-2, (1R,2S)-2-(((2-(4′-Fluoro-2′-(4-methyl-4H-1,2,4-triazol-3-yl)-[1,1′-biphenyl]-3-yl)-7-(trifluoromethyl)benzo[d]oxazol-5-yl)methyl)amino)cyclopentan-1-ol] | < 200 | < 200 | < 200
5 | COCCNCc1ccc2oc(-c3cc(-c4ccc(C#N)cc4-c4nncn4C)cc(C4CC4)n3)nc2c1 [AEN-15, 4-[2-Cyclopropyl-6-(5-{1[(2-methoxyethyl)amino]methyl}-1,3-benzoxazol-2-yl)pyridin-4-yl]-3-(4-methyl-1,2,4-triazol-3-yl)benzonitrile] | < 200 | 200 to 1000 | 200 to 1000
6 | COc1cc(CN[C@@H]2CCC[C@@H]2O)cc2nc(-c3cccc(-c4ccc(F)cc4-c4nncn4C)c3)oc12 [DX-2, (1S,2R)-2-(((2-(4′-Fluoro-2′-(4-methyl-4H-1,2,4-triazol-3-yl)-[1,1′-biphenyl]-3-yl)-7-methoxybenzo[d]oxazol-5-yl)methyl)amino)cyclopentan-1-ol] | < 200 | < 200 | < 200
7 | Cn1cnnc1-c1cc(F)ccc1-c1cccc(-c2cn3ccc(CO)cc3n2)c1 [GN-5, (2-(4′-Fluoro-2′-(4-methyl-4H-1,2,4-triazol-3-yl)-[1,1′-biphenyl]-3-yl)imidazo[1,2-a]pyridin-7-yl)methanol] | 10000 to 50000 | 10000 to 50000 | 10000 to 50000
8 | COCCCNCc1cc(C(F)(F)F)c2oc(-c3cccc(-c4ccc(F)cc4-c4nncn4C)c3)nc2c1 [EE-2, N-((2-(4′-Fluoro-2′-(4-methyl-4H-1,2,4-triazol-3-yl)-[1,1′-biphenyl]-3-yl)-7-(trifluoromethyl)benzo[d]oxazol-5-yl)methyl)-3-methoxypropan-1-amine] | < 200 | < 200 | < 200
9 | C[C@H]1CCCN(Cc2cc(C(F)(F)F)c3oc(-c4cccc(-c5ccc(F)cc5-c5nncn5C)c4)nc3c2)C1 [Example U-1, (S)-2-(4′-Fluoro-2′-(4-methyl-4H-1,2,4-triazol-3-yl)-[1,1′-biphenyl]-3-yl)-5-((3-methylpiperidin-1-yl)methyl)-7-(trifluoromethyl)benzo[d]oxazole] | < 200 | 1000 to 10000 | 200 to 1000
10 | COC(=O)c1cc(F)c2oc(-c3cc(-c4ccc(C#N)cc4-c4nncn4C)cc(C4CC4)n3)nc2c1 [AHC-1, methyl 2-{4-[4-cyano-2-(4-methyl-1,2,4-triazol-3-yl)phenyl]-6-cyclopropylpyridin-2-yl}-7-fluoro-1,3-benzoxazole-5-carboxylate] | 200 to 1000 | 1000 to 10000 | 1000 to 10000
